From patent publication US11352399B2, “Peptide for toll-like receptor (TLR) inhibition and pharmaceutical composition comprising same” (GENESEN CO., LTD., priority 2017, dated 2022)

Key:
[1] = system: TLR4 signaling pathways; assay: Western blotting of NF-κB, IRF3 and MAPK in LPS-treated RAW 264.7 cells; format: cell-based, mouse
Method: In order to perform Western blotting, a pre-protein extraction solution (M-PER, Thermo Fisher Scientific Inc.) was mixed with a protease and phosphatase inhibitor mixture, and was added to RAW 264.7 cell or hPBMC cell pellets. The pellets were cooled for 10 minutes, and then the lysates were centrifuged at 16000×g for 10 minutes. Then, NE-PER nuclear and cytoplasmic extraction reagents (Thermo Fisher Scientific Inc.) were used to extract cytoplasmic and nuclear proteins, respectively, and a BCA kit (Sigma-Alderich Co. LLC) was used to measure concentrations of the proteins. Subsequently, the same amounts of proteins were developed on SDS-polyacrylamide gels, and electrophoresis was performed using the Mini-PROTEAN Tetra Cell two-dimensional electrophoresis system (Bio-Rad Laboratories, Hercules, Calif., USA). The membrane was immunoblotted with primary antibodies by gentle shaking overnight at a temperature of 4° C. (in which the primary antibodies were antibodies against p-p65, p-JNK, p-IRF3, ERK, p38, and human IL-1β (Cell Signaling Technology Inc., Danvers, Mass., USA); p-ERK, p-p38, Iκ-Bα, JNK, ATF3, COX2, caspase-1, and β-actin (Santa Cruz Biotechnology Inc., Santa Cruz, Calif., USA); iNOS (BD Biosciences); IL-6 and mouse IL-1β (R&D Systems Inc., Minneapolis, Minn., USA); TNF-α (Thermo Fisher Scientific, Inc.); NLRP3 (Adipogen, San Diego, Calif., USA)). Then, after thorough shaking with PBST, the membrane was incubated with anti-mouse/-rabbit HRP-conjugated secondary antibodies (Thermo Fisher Scientific Inc.) for 2 hours; and the proteins were detected with SuperSignal West Pico ECL solution (Thermo Fisher Scientific Inc.) and were visualized with the Fuji LAS-3000 system (Fujifilm, Tokyo, Japan).
TLR4-mediated responses induced by LPS induce direct interactions between the TIR domain of TIRAP and MyD88, thereby activating MyD88-dependent signaling pathways. In addition, the TLR4-mediated responses induce interactions between the TIR domain of TRAM and TRIF, thereby also activating MyD88-independent signaling pathways. […]

[2] = system: TLR7/8; assay: TNF-α secretion in RAW 264.7 cells with R848; format: cell-based, mouse
[3] = system: C57BL/6J mice, mouse sepsis model; assay: Renal and hepatic damage markers and cytokines in plasma, mouse sepsis model (24 hours); format: in vivo; settings: TIP1 and LPS
Method: Using the isolated plasma, secretion levels of TNF-α and IL-6 were measured by the method in Experimental Example 9, and changes in secretion levels of the renal damage markers, blood urea nitrogen (BUN) and creatinine (Cr), and the hepatic damage markers, aspartate aminotransferase (AST) and alanine aminotransferase (ALT) were analyzed through VETTEST-8008-system (IDEXX). The results are illustrated in FIGS. 16(a)-16(f).

[4] = system: mBMDM cells (LPS-induced); assay: LPS-induced cytokine and NO secretion in mBMDM cells; format: cell-based, mouse
Method: RAW 264.7 cells, THP1 cells, and mBMDM cells were dispensed into 96-well plates to a cell number of 2×10^5 cells/well, or into 24-well plates to a cell number of 5×10^5 cells/well. Incubation was performed overnight. Subsequently, combined treatment with TIP1 and LPS was performed. After 24 hours, secretion levels of IFN-β, IL-6, and TNF-α were measured using a […] (BioLegend), Mouse IL-6 Platinum ELISA (eBiosciences), and a Mouse TNF alpha ELISA Ready SET-Go! kit (eBiosciences). Absorbance was measured at 450 nm using a microplate reader spectrophotometer (Molecular Devices), and the results were analyzed using Softmax Pro 5.3 software (Molecular Devices Inc.).
RAW 264.7 cells and mBMDM cells were dispensed into 96-well plates (BD Biosciences) to a cell number of 2×10^5 cells/well and incubated overnight. Then, a NO level of the culture supernatant was measured using a NO detection kit (iNtRON Biotechnology Inc., Seongnam, Korea). Absorbance was measured at 550 nm using a microplate reader spectrophotometer (Molecular Devices Inc.), and the results were analyzed using Softmax Pro 5.3 software (Molecular Devices Inc.).
TNF-α, IL-6, IFN-β levels in the culture supernatant of mBMDM cells were measured using mouse TNF-α, IL-6, IFN-β Ready-SET-Go! ELISA kits according to the method described in Example 2-5, and a NO level in the supernatant was measured according to the method described in Example 2-7. The results are illustrated in FIGS. 6(a)-6(d).

[5] = LPS together with TIP1, FIG. 2(a)

For RQIKIWFQNRRMKWKKSHCRVLLI (TIP1), the “NF-κB activity (Western blotting)” value [1, 5] was “NF-κB activity was inhibited”, the “degree of degradation of Iκ-Bα, and activity of IRF3 and ATF3” value [1, 5] was “decreased” and the “MAPK activity (phosphorylation of ERK, JNK, p38)” value ([1]; LPS together with TIP1, FIG. 2(b)) was “MAPK activity was inhibited”. For the same sequence, the “secretion level of TNF-α” value [2] was “decreased”, the “alanine aminotransferase (ALT), hepatic damage marker” value [3] was “remarkably decreased” and the “aspartate aminotransferase (AST), hepatic damage marker” value [3] was “remarkably decreased”. For the same sequence, the “blood urea nitrogen (BUN), renal damage marker” value [3] was “remarkably decreased”, the “creatinine (Cr), renal damage marker” value [3] was “remarkably decreased” and the “secretion level of IL-6 in plasma” value [3] was “remarkably decreased”. For the same sequence, the “secretion level of TNF-α in plasma” value [3] was “remarkably decreased”, the “LPS-induced secretion level of IL-6” value [4] was “decreased” and the “LPS-induced secretion level of NO” value [4] was “decreased”. The “LPS-induced secretion level of TNF-α” value [4] was “decreased”.
